Measurements as given in patent US20250011368A1, “DLL3 TARGETING PEPTIDES AND CONSTRUCTS THEREOF” (MARIANA ONCOLOGY INC., priority 2023, published 2025).
Bridge positions count the residues as written; N and C are the ends. Square brackets hold non-standard residues; d marks the D form. Peptide text beside a SMILES is read from it. * marks the point of attachment. ξ: configuration not given here. DOTA = O=C(O)CN1CCN(CC(=O)O)CCN(CC(=O)*)CCN(CC(=O)O)CC1; Trp(5-F) = N[C@@H](Cc1c[nH]c2ccc(F)cc12)C(=O)O; Phe(2-CF3) = N[C@@H](Cc1ccccc1C(F)(F)F)C(=O)O; Trp(7-aza) = N[C@@H](Cc1c[nH]c2ncccc12)C(=O)O; Pro(trans-4-F) = O=C(O)[C@@H]1C[C@@H](F)CN1; Phe(4-F) = N[C@@H](Cc1ccc(F)cc1)C(=O)O; 1Nal = N[C@@H](Cc1cccc2ccccc12)C(=O)O; 2Nal = N[C@@H](Cc1ccc2ccccc2c1)C(=O)O; Nva(3-Et) = CCC(CC)[C@H](N)C(=O)O; β3hF = N[C@H](CC(=O)O)Cc1ccccc1; Chg = N[C@H](C(=O)O)C1CCCCC1; Tle = CC(C)(C)[C@H](N)C(=O)O; αMeP = C[C@@]1(C(=O)O)CCCN1; Octanoyl = CCCCCCCC(=O)*; Aze = O=C(O)[C@@H]1CCN1; Dab = NCC[C@H](N)C(=O)O; ξK = NCCCCC(N)C(=O)O

Molecular target: T1, human DLL3 (Homo sapiens, UniProt Q9NYJ7)
T1 sequence (Q9NYJ7 27-618): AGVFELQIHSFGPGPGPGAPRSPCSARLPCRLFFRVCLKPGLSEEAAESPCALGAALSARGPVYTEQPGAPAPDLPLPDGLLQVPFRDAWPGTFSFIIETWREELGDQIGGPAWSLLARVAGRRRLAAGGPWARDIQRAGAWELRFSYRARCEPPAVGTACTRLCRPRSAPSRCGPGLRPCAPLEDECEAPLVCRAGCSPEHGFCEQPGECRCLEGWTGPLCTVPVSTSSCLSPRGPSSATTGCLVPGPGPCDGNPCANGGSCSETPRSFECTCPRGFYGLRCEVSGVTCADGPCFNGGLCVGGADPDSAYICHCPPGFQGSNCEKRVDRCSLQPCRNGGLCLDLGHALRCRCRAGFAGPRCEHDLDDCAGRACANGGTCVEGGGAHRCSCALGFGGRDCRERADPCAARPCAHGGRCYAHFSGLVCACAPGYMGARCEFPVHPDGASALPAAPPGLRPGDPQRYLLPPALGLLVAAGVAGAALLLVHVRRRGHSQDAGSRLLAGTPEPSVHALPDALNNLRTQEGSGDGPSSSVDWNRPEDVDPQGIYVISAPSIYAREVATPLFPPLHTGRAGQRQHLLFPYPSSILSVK
Assay: Affinity determination by Surface Plasmon Resonance (SPR)
Format: binding
Details: 25° C., biotinylated human DLL3 immobilized on streptavidin sensor chip, 1:1 binding model; read-out: SPR KD
Procedure: SPR studies were performed on the compounds disclosed herein using the following protocol.
Biotinylated target ligand human DLL3 was immobilized on a streptavidin sensor chip. A reference surface was set up for nonspecific binding and refractive index changes. For analysis of the kinetics of interactions, varying concentrations of samples were injected at a flow rate of 100 μL/minute using running buffer containing 20 mM phosphate buffer with 2.7 mM KCl, 137 mM NaCl, 0.05% Surfactant P20 and 2% DMSO. Sensorgram curves were fitted with 1:1 binding model, and affinity and kinetic parameters were obtained using Biacore Insight evaluation 4.0. software.

Structure (SMILES): CCCCCCCC(=O)NCC[C@@H]1NC(=O)[C@H](Cc2c[nH]c3ccccc23)NC(=O)[C@H](CC(N)=O)NC(=O)[C@H](CC(N)=O)NC(=O)[C@@H](NC(=O)[C@@H](NC(=O)[C@@H](NC(=O)[C@H](Cc2c[nH]c3ccccc23)NC(C)=O)[C@@H](C)O)[C@@H](C)CC)CSSC[C@@H](C(=O)N[C@@H](Cc2c[nH]c3ccccc23)C(=O)N2CCC[C@H]2C(=O)N[C@H](CCCCNC(=O)CN2CCN(CC(=O)O)CCN(CC(=O)O)CCN(CC(=O)O)CC2)C(N)=O)NC(=O)[C@H](CC(=O)O)NC1=O [compound 93, Ac-W-T-I-C(3)-N-N-W-(DAB-4-NHCOC7H15)-D-C(3)-W-P-[D-Lys(DOTA)]-NH2] (Ac-WTICNNW[Dab](Octanoyl)DCWP[dK](DOTA)-NH2; disulfide 4-10)
- Kd: 10 to 100 nM

Structure (SMILES): CC[C@H](C)[C@H](NC(=O)[C@@H](NC(=O)[C@H](Cc1c[nH]c2ccc(F)cc12)NC(C)=O)[C@@H](C)O)C(=O)N[C@H]1CSSC[C@@H](C(=O)N[C@@H](Cc2c[nH]c3ccccc23)C(=O)N2CCC[C@H]2C(=O)N[C@H](CCCCNC(=O)CN2CCN(CC(=O)O)CCN(CC(=O)O)CCN(CC(=O)O)CC2)C(N)=O)NC(=O)[C@H](CC(=O)O)NC(=O)[C@H](Cc2c[nH]cn2)NC(=O)[C@H](Cc2c[nH]c3ccccc23)NC(=O)[C@H](CC(N)=O)NC(=O)[C@H](CC(N)=O)NC1=O [compound 100, Ac-(5Fluoro-W)-T-I-C(3)-N-N-W-H-D-C(3)-W-P-[D-Lys(DOTA)]-NH2] (Ac-[Trp(5-F)]TICNNWHDCWP[dK](DOTA)-NH2; disulfide 4-10)
- Kd: < 1 nM

Structure (SMILES): CC[C@H](C)[C@H](NC(=O)[C@@H](NC(=O)[C@H](Cc1c[nH]c2ccccc12)NC(C)=O)[C@@H](C)O)C(=O)N[C@H]1CSSC[C@@H](C(=O)N[C@@H](Cc2c[nH]c3ccccc23)C(=O)N2CCC[C@@]2(C)C(=O)N[C@H](CCCCNC(=O)CN2CCN(CC(=O)O)CCN(CC(=O)O)CCN(CC(=O)O)CC2)C(N)=O)NC(=O)[C@H](CC(=O)O)NC(=O)[C@H](Cc2c[nH]cn2)NC(=O)[C@H](Cc2c[nH]c3ccccc23)NC(=O)[C@H](CC(N)=O)NC(=O)[C@H](CC(N)=O)NC1=O [compound 105, Ac-W-T-I-C(3)-N-N-W-H-D-C(3)-W-(aMe-P)-[D-Lys(DOTA)]-NH2] (Ac-WTICNNWHDCW[αMeP][dK](DOTA)-NH2; disulfide 4-10)
- Kd: 1 to 10 nM

Structure (SMILES): CC(=O)N[C@@H](Cc1c[nH]c2ccccc12)C(=O)N[C@H](C(=O)N[C@H](C(=O)N[C@H]1CSSC[C@@H](C(=O)N[C@@H](Cc2c[nH]c3ccccc23)C(=O)N2CCC[C@H]2C(=O)N[C@H](CCCCNC(=O)CN2CCN(CC(=O)O)CCN(CC(=O)O)CCN(CC(=O)O)CC2)C(N)=O)NC(=O)[C@H](CC(=O)O)NC(=O)[C@H](Cc2c[nH]cn2)NC(=O)[C@H](Cc2c[nH]c3ccccc23)NC(=O)[C@H](CC(N)=O)NC(=O)[C@H](CC(N)=O)NC1=O)C1CCCCC1)[C@@H](C)O [compound 106, Ac-W-T-(Chg)-C(3)-N-N-W-H-D-C(3)-W-P-[D-Lys(DOTA)]-NH2] (Ac-WT[Chg]CNNWHDCWP[dK](DOTA)-NH2; disulfide 4-10)
- Kd: < 1 nM

Structure (SMILES): CC(=O)N[C@@H](Cc1c[nH]c2ccccc12)C(=O)N[C@H](C(=O)N[C@@H](Cc1cccc2ccccc12)C(=O)N[C@H]1CSSC[C@@H](C(=O)N[C@@H](Cc2c[nH]c3ccccc23)C(=O)N2CCC[C@H]2C(=O)N[C@H](CCCCNC(=O)CN2CCN(CC(=O)O)CCN(CC(=O)O)CCN(CC(=O)O)CC2)C(N)=O)NC(=O)[C@H](CC(=O)O)NC(=O)[C@H](Cc2c[nH]cn2)NC(=O)[C@H](Cc2c[nH]c3ccccc23)NC(=O)[C@H](CC(N)=O)NC(=O)[C@H](CC(N)=O)NC1=O)[C@@H](C)O [compound 107, Ac-W-T-(1Nal)-C(3)-N-N-W-H-D-C(3)-W-P-[D-Lys(DOTA)]-NH2] (Ac-WT[1Nal]CNNWHDCWP[dK](DOTA)-NH2; disulfide 4-10)
- Kd: 10 to 100 nM

Structure (SMILES): CC[C@H](C)[C@H](NC(=O)[C@@H](NC(=O)[C@H](Cc1c[nH]c2ccccc12)NC(C)=O)[C@@H](C)O)C(=O)N[C@H]1CSSC[C@@H](C(=O)N[C@@H](Cc2c[nH]c3ccccc23)C(=O)N2C[C@H](F)C[C@H]2C(=O)N[C@H](CCCCNC(=O)CN2CCN(CC(=O)O)CCN(CC(=O)O)CCN(CC(=O)O)CC2)C(N)=O)NC(=O)[C@H](CC(=O)O)NC(=O)[C@H](Cc2c[nH]cn2)NC(=O)[C@H](Cc2c[nH]c3ccccc23)NC(=O)[C@H](CC(N)=O)NC(=O)[C@H](CC(N)=O)NC1=O [compound 113, Ac-W-T-I-C(3)-N-N-W-H-D-C(3)-W-(trans4Fluoro-P)-[D-Lys(DOTA)]-NH2] (Ac-WTICNNWHDCW[Pro(trans-4-F)][dK](DOTA)-NH2; disulfide 4-10)
- Kd: < 1 nM

Structure (SMILES): CC(=O)N[C@@H](Cc1c[nH]c2ccccc12)C(=O)N[C@H](C(=O)N[C@@H](Cc1ccccc1C(F)(F)F)C(=O)N[C@H]1CSSC[C@@H](C(=O)N[C@@H](Cc2c[nH]c3ccccc23)C(=O)N2CCC[C@H]2C(=O)N[C@H](CCCCNC(=O)CN2CCN(CC(=O)O)CCN(CC(=O)O)CCN(CC(=O)O)CC2)C(N)=O)NC(=O)[C@H](CC(=O)O)NC(=O)[C@H](Cc2c[nH]cn2)NC(=O)[C@H](Cc2c[nH]c3ccccc23)NC(=O)[C@H](CC(N)=O)NC(=O)[C@H](CC(N)=O)NC1=O)[C@@H](C)O [compound 114, Ac-W-T-(2CF3-F)-C(3)-N-N-W-H-D-C(3)-W-P-[D-Lys(DOTA)]-NH2] (Ac-WT[Phe(2-CF3)]CNNWHDCWP[dK](DOTA)-NH2; disulfide 4-10)
- Kd: < 1 nM

Structure (SMILES): CC(=O)N[C@@H](Cc1c[nH]c2ccccc12)C(=O)N[C@H](C(=O)N[C@H](CC(=O)N[C@H]1CSSC[C@@H](C(=O)N[C@@H](Cc2c[nH]c3ccccc23)C(=O)N2CCC[C@H]2C(=O)N[C@H](CCCCNC(=O)CN2CCN(CC(=O)O)CCN(CC(=O)O)CCN(CC(=O)O)CC2)C(N)=O)NC(=O)[C@H](CC(=O)O)NC(=O)[C@H](Cc2c[nH]cn2)NC(=O)[C@H](Cc2c[nH]c3ccccc23)NC(=O)[C@H](CC(N)=O)NC(=O)[C@H](CC(N)=O)NC1=O)Cc1ccccc1)[C@@H](C)O [compound 115, Ac-W-T-(2PhEt-A)-C(3)-N-N-W-H-D-C(3)-W-P-[D-Lys(DOTA)]-NH2] (Ac-WT[β3hF]CNNWHDCWP[dK](DOTA)-NH2; disulfide 4-10)
- Kd: 1 to 10 nM

Structure (SMILES): CC(=O)N[C@@H](Cc1c[nH]c2ccccc12)C(=O)N[C@H](C(=O)N[C@@H](Cc1ccc2ccccc2c1)C(=O)N[C@H]1CSSC[C@@H](C(=O)N[C@@H](Cc2c[nH]c3ccccc23)C(=O)N2CCC[C@H]2C(=O)N[C@H](CCCCNC(=O)CN2CCN(CC(=O)O)CCN(CC(=O)O)CCN(CC(=O)O)CC2)C(N)=O)NC(=O)[C@H](CC(=O)O)NC(=O)[C@H](Cc2c[nH]cn2)NC(=O)[C@H](Cc2c[nH]c3ccccc23)NC(=O)[C@H](CC(N)=O)NC(=O)[C@H](CC(N)=O)NC1=O)[C@@H](C)O [compound 116, Ac-W-T-(2Nal)-C(3)-N-N-W-H-D-C(3)-W-P-[D-Lys(DOTA)]-NH2] (Ac-WT[2Nal]CNNWHDCWP[dK](DOTA)-NH2; disulfide 4-10)
- Kd: 10 to 100 nM

Structure (SMILES): CC(=O)N[C@@H](Cc1c[nH]c2ccc(F)cc12)C(=O)N[C@H](C(=O)N[C@H](C(=O)N[C@H]1CSSC[C@@H](C(=O)N[C@@H](Cc2c[nH]c3ncccc23)C(=O)N2CC[C@H]2C(=O)NC(CCCCNC(=O)CN2CCN(CC(=O)O)CCN(CC(=O)O)CCN(CC(=O)O)CC2)C(N)=O)NC(=O)[C@H](CC(=O)O)NC(=O)[C@H](Cc2cnc[nH]2)NC(=O)[C@H](Cc2ccc(F)cc2)NC(=O)[C@H](CC(N)=O)NC(=O)[C@H](CC(N)=O)NC1=O)C(C)(C)C)[C@@H](C)O (stereo partly drawn) [compound 121, Ac-(5Fluoro-W)-T-(Tbg)-C(3)-N-N-(4Fluoro-F)-H-D-C(3)-(7Aza-W)-(Aze)-[D-Lys(DOTA)]-NH2] (Ac-[Trp(5-F)]T[Tle]CNN[Phe(4-F)]HDC[Trp(7-aza)][Aze][ξK](DOTA)-NH2; disulfide 4-10)
- Kd: 10 to 100 nM

Structure (SMILES): CCC(CC)[C@H](NC(=O)[C@@H](NC(=O)[C@H](Cc1c[nH]c2ccc(F)cc12)NC(C)=O)[C@@H](C)O)C(=O)N[C@H]1CSSC[C@@H](C(=O)N[C@@H](Cc2c[nH]c3ncccc23)C(=O)N2CC[C@H]2C(=O)NC(CCCCNC(=O)CN2CCN(CC(=O)O)CCN(CC(=O)O)CCN(CC(=O)O)CC2)C(N)=O)NC(=O)[C@H](CC(=O)O)NC(=O)[C@H](Cc2cnc[nH]2)NC(=O)[C@H](Cc2ccc(F)cc2)NC(=O)[C@H](CC(N)=O)NC(=O)[C@H](CC(N)=O)NC1=O (stereo partly drawn) [compound 122, Ac-(5Fluoro-W)-T-(Env)-C(3)-N-N-(4Fluoro-F)-H-D-C(3)-(7Aza-W)-(Aze)-[D-Lys(DOTA)]-NH2] (Ac-[Trp(5-F)]T[Nva(3-Et)]CNN[Phe(4-F)]HDC[Trp(7-aza)][Aze][ξK](DOTA)-NH2; disulfide 4-10)
- Kd: 1 to 10 nM
